Laboratory results reported in PMC6222352, “Ultrasound Assisted Synthesis of 4-(Benzyloxy)-N-(3-chloro-2-(substitutedphenyl)-4-oxoazetidin-1-yl) Benzamide as Challenging Anti-Tubercular Scaffold” (Molecules : A Journal of Synthetic Chemistry and Natural …, 2018).
Converted amounts (≈) assume the structure as drawn. Like-named read-outs stand apart in the source and are kept apart here.

How the values were obtained:
[1] = test system: Mycobacterium tuberculosis H37Ra (ATCC 25177); experiment: In vitro anti-tubercular activity by XTT Reduction Menadione assay (XRMA); assay type: cell-based; settings: 192 h, read-out: Mycobacterium tuberculosis H37Ra (ATCC 25177) IC50
Experimental: All the synthesized compounds 6a–j were screened for their in vitro anti-tubercular activity against MTB H37Ra (ATCC 25177). Rifampicin was used as a positive control.
In Vitro Anti-Tubercular Activity by the XTT Reduction Menadione Assay (XRMA) Method
Mycobacterium tuberculosis H37Ra (ATCC 25177) strains were obtained from AstraZeneca, India. The stock culture was maintained at −80 °C and subcultured once in a liquid M. pheli medium which contained 0.5 g KH2PO4, 0.25 g trisodium citrate, 60 mg MgSO4, 0.5 gm asparagine, and 2 mL glycerol in distilled water (100 mL) followed by pH adjustment to 6.6. Bacilli stock cultures were grown in M. pheli medium at 37 °C with continuous agitation at 150 RPM;, it takes at least 8–10 days for OD 1 at 620 nm. Stock solutions (10 mg/mL) of all the synthesized compounds were prepared in DMSO and were evaluated for in vitro anti-tubercular activity against Mycobacterium tuberculosis H37Ra (ATCC 25177) in a liquid medium using an established XTT Reduction Menadione assay (XRMA) method. Briefly, the 96 wells plate received 248.5 μL of M. Pheli medium consisting of bacilli and 2.5 μL of test solutions in serial dilution (12.5, 6.25, 3.125, 1.5625, 0.78 μg/mL). The plates were sealed with a 96-well sealing sheet and incubated at 37 °C for 8 days. Post incubation, XRMA was carried out to estimate viable cells present in different wells of the assay plate. The absorbance was read on a micro plate reader (Spectramax plus384 plate reader, Molecular Devices Inc., San Jose, CA, USA) at 470 nm filter against a blank prepared from cell-free wells. Absorbance given by cells treated with the vehicle alone was taken as 100% cell growth. MIC and IC50 values of compounds were calculated by using Origin 6 software. Percent inhibition was calculated by using following formula:% Inhibition = [(absorbance of Control − absorbance of Test)/(absorbance of Control − absorbance of Blank)] × 100(1) where control is the medium with bacilli along with vehicle and blank is cell-free medium. The drug in clinical use, rifampicin was used as a reference.

[2] = test system: human cervical cancer cell line HeLa; experiment: In vitro cytotoxicity by MTT assay; assay type: cell-based; settings: 48 h, concentration range 100–0.1 μg/mL, read-out: Hela Cells IC50
Experimental: To lowers the failure of potential therapeutics at later stages of clinical trials toxicity analysis of synthesized compounds at the early stage of research work plays a very important role. To examine the safety of the synthesized compounds, 6a–j were evaluated for their toxicity against human cervical cancer cell line HeLa using the concentration range between 100–0.1 μg/mL.
All the synthesized compounds were tested for their cytotoxicity by a modified MTT assay as described previously. Briefly, cells were seeded at the density of 1 × 10^5 cells/mL in a 96-well plate. The plates were incubated overnight in CO2 incubator (37 °C under 5% CO2 and 95% air in a humidified atmosphere). Next day, cells were treated with synthesized compounds at 10-fold dilution (100–0.1 µg/mL) and incubated for an additional 48 h. Paclitaxel was used as positive control. Post incubation, cell medium was replaced with MTT (0.5 mg/mL)-PBS medium and incubated for 2–4 h to form the reduced MTT or Formazan crystals. This reduced MTT or Formazan crystals were solubilized by addition of 100 µL of SDS-DMF (20% SDS in 50% DMF). The optical density was read on a microplate reader (Spectramax plus 384 plate reader, Molecular Devices Inc.) at 570 nm filter against a blank prepared from cell-free wells. Absorbance given by cells treated with the vehicle alone was taken as 100% cell growth. IC50 and MIC values were calculated from graphs, using Origin Pro software. Where DMSO treated culture cells is control and culture medium without cells is blank. The percent cytotoxicity in the presence of test fractions was calculated by the following formula:Percent cytotoxicity = [(average absorbance of control − absorbance of a compound)/(absorbance of control − absorbance of blank)] × 100(2)

[3] = XRMA, 8 days incubation at 37 °C, liquid M. pheli medium

`O=C(NN1C(=O)C(Cl)C1c1ccc(O)cc1)c1ccc(OCc2ccccc2)cc1` (stereo not shown) [Derivative 6a, 4-(Benzyloxy)-N-(3-chloro-2-(4-hydroxyphenyl)-4-oxoazetidin-1-yl) benzamide] showed an IC50 [1, 3] of 0.652 µg/mL (≈ 1.54 µM) and an IC50 [2] of 82.6 µg/mL (≈ 195 µM).
For `COc1ccc(C2C(Cl)C(=O)N2NC(=O)c2ccc(OCc3ccccc3)cc2)cc1` (stereo not shown) [Derivative 6b, 4-(Benzyloxy)-N-(3-chloro-2-(4-methoxyphenyl)-4-oxoazetidin-1-yl) benzamide], the IC50 [1, 3] was 0.918 µg/mL (≈ 2.1 µM) and the IC50 [2] was 54.9 µg/mL (≈ 126 µM).
`O=C(NN1C(=O)C(Cl)C1c1ccc(F)cc1)c1ccc(OCc2ccccc2)cc1` (stereo not shown) [Derivative 6c, 4-(Benzyloxy)-N-(3-chloro-2-(4-fluorophenyl)-4-oxoazetidin-1-yl) benzamide] was tested, and the IC50 [1, 3] was 0.85 µg/mL (≈ 2 µM) and the IC50 [2] was 31.6 µg/mL (≈ 74.4 µM).
Work on `O=C(NN1C(=O)C(Cl)C1c1ccc(Cl)cc1)c1ccc(OCc2ccccc2)cc1` (stereo not shown) [Derivative 6d, 4-(Benzyloxy)-N-(3-chloro-2-(4-chlorophenyl)-4-oxoazetidin-1-yl) benzamide] yielded an IC50 [1, 3] of 1.34 µg/mL (≈ 3.04 µM) and an IC50 [2] of 70.4 µg/mL (≈ 159 µM).
`O=C(NN1C(=O)C(Cl)C1c1cccc([N+](=O)[O-])c1)c1ccc(OCc2ccccc2)cc1` (stereo not shown) [Derivative 6e, 4-(Benzyloxy)-N-(3-chloro-2-(3-nitrophenyl)-4-oxoazetidin-1-yl) benzamide] was tested, and the IC50 [1, 3] was 0.654 µg/mL (≈ 1.45 µM) and the IC50 [2] was > 100 µg/mL.
`COc1ccc(C2C(Cl)C(=O)N2NC(=O)c2ccc(OCc3ccccc3)cc2)cc1OC` (stereo not shown) [Derivative 6f, 4-(Benzyloxy)-N-(3-chloro-2-(3,4-dimethoxyphenyl)-4-oxoazetidin-1-yl) benzamide] was tested, and the IC50 [1, 3] was 1.72 µg/mL (≈ 3.67 µM) and the IC50 [2] was 44.1 µg/mL (≈ 94.4 µM).
`COc1cc(C2C(Cl)C(=O)N2NC(=O)c2ccc(OCc3ccccc3)cc2)ccc1O` (stereo not shown) [Derivative 6g, 4-(Benzyloxy)-N-(3-chloro-2-(4-hydroxy-3-methoxyphenyl)-4-oxoazetidin-1-yl) benzamide] was tested, and the IC50 [1, 3] was 0.718 µg/mL (≈ 1.59 µM) and the IC50 [2] was > 100 µg/mL.
For `CCOc1cc(C2C(Cl)C(=O)N2NC(=O)c2ccc(OCc3ccccc3)cc2)ccc1O` (stereo not shown) [Derivative 6h, 4-(Benzyloxy)-N-(3-chloro-2-(3-ethoxy-4-hydroxyphenyl)-4-oxoazetidin-1-yl) benzamide], the IC50 [1, 3] was 0.85 µg/mL (≈ 1.82 µM) and the IC50 [2] was > 100 µg/mL.
`O=C(NN1C(=O)C(Cl)C1c1ccc(OCc2ccccc2)cc1)c1ccc(OCc2ccccc2)cc1` (stereo not shown) [Derivative 6i, 4-(Benzyloxy)-N-(2-(4-(benzyloxy)phenyl)-3-chloro-4-oxoazetidin-1-yl) benzamide] gave an IC50 [1, 3] of 1.31 µg/mL (≈ 2.55 µM) and an IC50 [2] of 89.2 µg/mL (≈ 174 µM).
Compound `O=C(NN1C(=O)C(Cl)C1c1cccs1)c1ccc(OCc2ccccc2)cc1` (stereo not shown) [Derivative 6j, 4-(Benzyloxy)-N-(3-chloro-2-oxo-4-(thiophen-2-yl)azetidin-1-yl) benzamide] has an IC50 [1, 3] of 0.786 µg/mL (≈ 1.9 µM) and an IC50 [2] of 33.2 µg/mL (≈ 80.4 µM).
Compound `CC(=O)O[C@H]1C(=O)[C@@]2(C)[C@H]([C@H](OC(=O)c3ccccc3)[C@]3(O)C[C@H](OC(=O)[C@H](O)[C@@H](NC(=O)c4ccccc4)c4ccccc4)C(C)=C1C3(C)C)[C@]1(OC(C)=O)CO[C@@H]1C[C@@H]2O` [Paclitaxel, reference compound] has an IC50 [2] of 0.0056 µg/mL (≈ 0.00656 µM).
For `CO[C@H]1/C=C/O[C@@]2(C)Oc3c(C)c(O)c4c(O)c(c(/C=N/N5CCN(C)CC5)c(O)c4c3C2=O)NC(=O)/C(C)=C\C=C\[C@H](C)[C@H](O)[C@@H](C)[C@@H](O)[C@@H](C)[C@H](OC(C)=O)[C@@H]1C` [Rifampicin, reference compound], the IC50 [1] was 0.004 µg/mL (≈ 0.00486 µM).
